Reference: US6627769B2, “RGD-analog non-peptidic molecules having anti-adhesive, anti-migration and anti-proliferative effects” (Provincia Italiana Della Congregzaione dei Figli …, priority 2001, dated 2003)
Where two headings read alike, the source gives them in different places.

Experiments:
[1] = tested on: RASMC proliferation stimulated with PDGF-BB
Description: (§1) For this test rat vascular smooth muscle cells (RASMC) primary cultures, obtained from adult male Wistar Rats, were used according to well known procedures (Facchiano et al., 2000, J. Cell Sci., 113(16), 2855-63).
(§2) Proliferation assay was performed, following standard procedures (Facchiano, et al., 2000, Cell Sci., 113(16), 2855-63), on 6-well plates (1×10^5 cells/plate) allowed to grow for 24 hours in DMEM supplemented with 10% Fetal Calf Serum (FCS) at 37° C. in 5% CO2. Medium was replaced with starvation medium containing either DMEM-0.1% BSA for 24 hours. Subsequently the starvation medium was replaced with fresh medium containing either 0.1% BSA alone or 0.1% BSA with PDGF-BB in the presence or absence of the RGD-analog. Every assay was carried out at different time intervals and cells were harvested and counted with hemacytometer.

[2] = tested on: RASMC migration toward PDGF-BB; assay: Migration assay in modified Boyden chambers toward PDGF-BB; assay type: cell-based, rat; details: FIG. 2; PDGF-BB 10 ng/ml as chemoattractant
Description: Rat vascular smooth muscle cells (RASMC) were placed in the upper chamber of the Boyden apparatus. […] Cell migrated on the bottom face of the filters were counted at 400× magnification. Fifteen fields were counted for each filter and the average number of cells/field was calculated. Experiments were performed at least 4 times in duplicate.

[3] = tested on: RASMC proliferation stimulated with PDGF-BB; assay: Proliferation assay (PDGF-BB stimulated RASMC, cell counting); details: FIG. 3
Description: as §1, §2

SMILES | toxic effects on cells [1] | inhibition of RASMC migration toward PDGF-BB gradient [2] | anti-proliferative effect (inhibition of RASMC proliferation) ([3]; 100 ng/ml, stimulated for 48 hours with PDGF-BB (10 ng/ml)) | toxic effects on cells ([3]; added to cells in the absence of PDGF-BB)
NC(N)=NCCC[C@H](N)C(=O)NCC(=O)N[C@@H](CC(=O)O)C(=O)N[C@@H](CO)C(=O)O [RGDS] | do not show toxic effects |  |  | 
N=C(N)NCCC[C@H](NC(=O)[C@@H](Cc1ccccc1)NC(=O)[C@H](CCCNC(=N)N)NC(=O)CC(=O)N[C@@H](CC(=O)O)C(N)=O)C(N)=O [non-peptidic RGD-analog, H2N—RfRmD—NH2] |  | in a dose-dependent manner | marked anti-proliferative effect | do not show toxic effects
